Assay results: patent US12257264B2, “Combination therapy for HIV with adenosine derivative and capsid inhibitors” (Brii Biosciences, Inc., priority 2021, dated 2025)
Where “and” joins values, the source holds several entries; their conditions need not be identical. Equal values may be shown once.

Assays:
[1] = Plasma exposures following oral administration to beagle dogs; details: for Prodrug formula 4-A Concentrations in Dog Plasma / EFdA Concentrations in Dog Plasma / concentration at 0.25 h / concentration at 0.5 h / concentration at 1 h: Prodrug formula 4-A PO 8.25 mg/kg; for concentration at 0.25 h / concentration at 0.5 h / concentration at 1 h: male, beagle, dog, in vivo, po, Prodrug formula 4-A Concentrations in Dog Plasma
[2] = Plasma exposures following IV infusion alone or in combination to Sprague-Dawley rats
Method: The pharmacokinetics of EFdA and prodrug formula 4-A, as well as lenacapavir were studied in rats after IV infusion administration alone or in combination at a dose of 1.0 mg/kg each.
Formulations: The prodrugs and lenacapavir were formulated alone or in combination as solutions at 1.0 mg/mL each in 20% […], 10% Solutol aqueous solution within 0.5 hour prior to dose.
Dose Administration and Sample Collection: The in-life phase of this study was conducted at the WuXi Apptec (WuXi) at Shanghai, China in accordance with the WuXi Institutional Animal Care and Use Committee (IACUC) standard animal procedures along with the IACUC guidelines that are in compliance with the Animal Welfare Act, the Guide for the Care and Use of Laboratory Animals. and was approved by the IACUA Committee. Male Sprague-Dawley rats (0.262+/−0.019 kg) were used for the studies. Each drug was administered as a single dose by 30-min IV infusion (1 ml/kg) alone or in combination. Plasma samples were collected at 0 (pre-dose), 5, 10, 15 and 30 min, 1, 2, 4, 7, 12 and 24 h post-dose. Blood (approximately 0.1 mL) was processed immediately for plasma by centrifugation at 3,200 g at 4° C. for 10 min within half an hour of collection. Plasma samples were frozen and maintained at −70° C. until analyzed. To stabilize the prodrug at the sample collection and subsequent analysis, the following stabilizing reagents were added to the blood collection K2EDTA tubes on wet ice prior to sample collection: for each 100 mL of blood, 10 mL of premade inhibitor cocktail consists of 600 mM Citric Acid, 400 mM PMSF, 400 mM NaF, and 400 mM Dichlorvos.
Determination of EFdA and Prodrugs in plasma: Briefly, plasma (20 μL) was mixed with 100 l acetonitrile to precipitate protein. Consistent with sample collection procedure, the same cocktail protocol was also added to stabilize the prodrug in the standard and QC samples.
Bioanalysis: A Sciex API-6500 Plus triplequadrupole mass spectrometer coupled with a Waters Acquity UPLC system (Framingham, MA 01701) was used for quantitative analysis of plasma samples. The column was a Waters HSS T3 column (2.1×50 mm, 1.8 micrometer). The mobile phases used were: A, 0.1% formic acid in water; B, 0.1% formic acid in acetonitrile. For the analysis of EFdA and prodrugs in plasma, the flow rate was 0.6 mL/min with a total run time of 2.0 min. […] Detection of the prodrug and EFdA were achieved using positive ion electrospray mass spectroscopic mode using unit resolution mode. Multiple reaction monitoring (MRM) modes were used to quantify both prodrug and EFdA, e.g. the MRM transition for EFdA was 294.0-154.2 Da, and the transition for prodrug 4-A was 449.3-164.9 Da. For the analysis of lenacapavir in plasma, the flow rate was 0.7 mL/min with a total run time of 1.5 min. The HPLC gradient was initiated at 95% A/5% B for 0.50 min, followed by linear gradient increase to […] over the next 0.2 min; the gradient was subsequently maintained at 100% of mobile B over the next 0.7 min before ramping down to 95% mobile phase A within the following 0.1 min. Detection of lenacapavir was achieved using positive ion electrospray mass spectroscopic mode using unit resolution mode. Multiple reaction monitoring (MRM) modes were used to quantify lenacapavir, e.g. the MRM transition for lenacapavir was 968.1-869.4 Da. Peak areas were integrated by the Sciex program Analyst®, version 1.6.3, operating on a Windows 7 computer where concentrations were determined by a weighted (1/x2) linear regression of peak area ratios (peak area of EFdA/peak area of corresponding IS) versus the nominal concentrations of the plasma calibration standards. Calculations were performed on unrounded numbers. Overall, Analyst® determined the precision and accuracy for the calibration standards and QC samples.

[3] = Prodrug formula 4-A IV infusion 1.0 mg/kg alone, 4.00 hrs, individual animals
[4] = Prodrug formula 4-A IV infusion 1.0 mg/kg alone, 7.00 hrs, individual animals
[5] = Prodrug formula 4-A IV infusion 1.0 mg/kg alone, 12.0 hrs, individual animals
[6] = Prodrug formula 4-A IV infusion 1.0 mg/kg alone, 24.0 hrs, individual animals
[7] = Prodrug formula 4-A IV infusion 1.0 mg/kg with Lenacapavir, 7.00 hrs, individual animals
[8] = Prodrug formula 4-A IV infusion 1.0 mg/kg with Lenacapavir, 12.0 hrs, individual animals
[9] = Prodrug formula 4-A IV infusion 1.0 mg/kg with Lenacapavir, 24.0 hrs, individual animals
[10] = Prodrug formula 4-A IV infusion 1.0 mg/kg with Lenacapavir, 48.0 hrs, individual animals
[11] = Prodrug formula 4-A IV infusion 1.0 mg/kg with Lenacapavir, 72.0 hrs, individual animals

C#C[C@]1(COC(=O)OCc2oc(=O)oc2C)O[C@@H](n2cnc3c(N)nc(F)nc32)C[C@@H]1O [Formula 4-A, ((2R,3S,5R)-5-(6-amino-2-fluoro-9H-purin-9-yl)-2-ethynyl-3-hydroxytetrahydrofuran-2-yl)methyl ((5-methyl-2-oxo-1,3-dioxol-4-yl)methyl) carbonate]
Prodrug formula 4-A Concentrations in Dog Plasma ([1]; 0.250 hrs, individual animals, 8.25 mg/kg): 1.63 ng/mL and 1.09 ng/mL | Prodrug formula 4-A Concentrations in Dog Plasma ([1]; 0.500 hrs, individual animals, 8.25 mg/kg): BQL | Prodrug formula 4-A Concentrations in Dog Plasma ([1]; 1.00 hrs, individual animals, 8.25 mg/kg): BQL | Prodrug formula 4-A Concentrations in Dog Plasma ([1]; 2.00 hrs, individual animals): BQL | Prodrug formula 4-A Concentrations in Dog Plasma ([1]; 4.00 hrs, individual animals): BQL | Prodrug formula 4-A Concentrations in Dog Plasma ([1]; 6.00 hrs, individual animals): BQL | Prodrug formula 4-A Concentrations in Dog Plasma ([1]; 8.00 hrs, individual animals): BQL | EFdA Concentrations in Dog Plasma ([1]; 12.0 hrs, individual animals): BQL | Prodrug formula 4-A Concentrations in Dog Plasma ([1]; 12.0 hrs, individual animals): BQL | EFdA Concentrations in Dog Plasma ([1]; 24.0 hrs, individual animals): BQL | Prodrug formula 4-A Concentrations in Dog Plasma ([1]; 24.0 hrs, individual animals): BQL | EFdA AUC and Cmax compared with a dose-equivalent EFdA ([1]; dogs, oral): higher AUC and Cmax | Prodrug detected in the systemic circulation ([1]; dogs, oral): minimal prodrug detected in the systemic circulation | concentration at 0.25 h ([1]; 8.25 mg/kg, 0.250 hrs, Mean): 1.28 ng/mL | concentration at 0.25 h ([1]; 8.25 mg/kg, 0.250 hrs, individual animals): 1.13 ng/mL | concentration at 0.5 h ([1]; 8.25 mg/kg, 0.500 hrs, Mean): 1.68 ng/mL | concentration at 0.5 h ([1]; 8.25 mg/kg, 0.500 hrs, individual animals): 1.68 ng/mL | concentration at 1 h ([1]; 8.25 mg/kg, 1.00 hrs, Mean): 1.43 ng/mL | concentration at 1 h ([1]; 8.25 mg/kg, 1.00 hrs, individual animals): 1.43 ng/mL | Prodrug formula 4A Concentrations in Rat Plasma When Dosed alone ([2]; Prodrug formula 4-A IV infusion 1.0 mg/kg alone, 0.0830 hrs, individual animals): BQL | Prodrug formula 4A Concentrations in Rat Plasma When Dosed alone ([2]; Prodrug formula 4-A IV infusion 1.0 mg/kg alone, 0.167 hrs, individual animals): BQL | Prodrug formula 4A Concentrations in Rat Plasma When Dosed alone ([2]; Prodrug formula 4-A IV infusion 1.0 mg/kg alone, 0.250 hrs, individual animals): BQL | Prodrug formula 4A Concentrations in Rat Plasma When Dosed alone ([2]; Prodrug formula 4-A IV infusion 1.0 mg/kg alone, 0.500 hrs, individual animals): BQL | Prodrug formula 4A Concentrations in Rat Plasma When Dosed alone ([2]; Prodrug formula 4-A IV infusion 1.0 mg/kg alone, 1.00 hrs, individual animals): BQL | Prodrug formula 4A Concentrations in Rat Plasma When Dosed alone ([2]; Prodrug formula 4-A IV infusion 1.0 mg/kg alone, 2.00 hrs, individual animals): BQL | EFdA Concentrations in Rat Plasma When Dosed Alone [2, 3]: BQL | Prodrug formula 4A Concentrations in Rat Plasma When Dosed alone [2, 3]: BQL | EFdA Concentrations in Rat Plasma When Dosed Alone [2, 4]: BQL | Prodrug formula 4A Concentrations in Rat Plasma When Dosed alone [2, 4]: BQL | EFdA Concentrations in Rat Plasma When Dosed Alone [2, 5]: BQL | Prodrug formula 4A Concentrations in Rat Plasma When Dosed alone [2, 5]: BQL | EFdA Concentrations in Rat Plasma When Dosed Alone [2, 6]: BQL | Prodrug formula 4A Concentrations in Rat Plasma When Dosed alone [2, 6]: BQL | Prodrug formula 4A Concentrations in Rat Plasma When Dosed with Lenacapavir ([2]; Prodrug formula 4-A IV infusion 1.0 mg/kg with Lenacapavir, 0.0830 hrs, individual animals): 1.37 ng/mL and 5.19 ng/mL and 1.54 ng/mL and 2.80 ng/mL | Prodrug formula 4A Concentrations in Rat Plasma When Dosed with Lenacapavir ([2]; Prodrug formula 4-A IV infusion 1.0 mg/kg with Lenacapavir, 0.167 hrs, individual animals): BQL | Prodrug formula 4A Concentrations in Rat Plasma When Dosed with Lenacapavir ([2]; Prodrug formula 4-A IV infusion 1.0 mg/kg with Lenacapavir, 0.250 hrs, individual animals): 1.13 ng/mL and BQL (2×) and 2.38 ng/mL | Prodrug formula 4A Concentrations in Rat Plasma When Dosed with Lenacapavir ([2]; Prodrug formula 4-A IV infusion 1.0 mg/kg with Lenacapavir, 0.500 hrs, individual animals): BQL | Prodrug formula 4A Concentrations in Rat Plasma When Dosed with Lenacapavir ([2]; Prodrug formula 4-A IV infusion 1.0 mg/kg with Lenacapavir, 1.00 hrs, individual animals): BQL | Prodrug formula 4A Concentrations in Rat Plasma When Dosed with Lenacapavir ([2]; Prodrug formula 4-A IV infusion 1.0 mg/kg with Lenacapavir, 2.00 hrs, individual animals): BQL | Prodrug formula 4A Concentrations in Rat Plasma When Dosed with Lenacapavir ([2]; Prodrug formula 4-A IV infusion 1.0 mg/kg with Lenacapavir, 4.00 hrs, individual animals): BQL | EFdA Concentrations in Rat Plasma When Dosed with Lenacapavir [2, 7]: BQL | Prodrug formula 4A Concentrations in Rat Plasma When Dosed with Lenacapavir [2, 7]: BQL | EFdA Concentrations in Rat Plasma When Dosed with Lenacapavir [2, 8]: BQL | Prodrug formula 4A Concentrations in Rat Plasma When Dosed with Lenacapavir [2, 8]: BQL | EFdA Concentrations in Rat Plasma When Dosed with Lenacapavir [2, 9]: BQL | Prodrug formula 4A Concentrations in Rat Plasma When Dosed with Lenacapavir [2, 9]: BQL | EFdA Concentrations in Rat Plasma When Dosed with Lenacapavir [2, 10]: BQL | Prodrug formula 4A Concentrations in Rat Plasma When Dosed with Lenacapavir [2, 10]: BQL | EFdA Concentrations in Rat Plasma When Dosed with Lenacapavir [2, 11]: BQL | Prodrug formula 4A Concentrations in Rat Plasma When Dosed with Lenacapavir [2, 11]: BQL | concentration at 0.25 h ([2]; male, Sprague-Dawley, rat, in vivo, 1 mg/kg, Prodrug formula 4A Concentrations in Rat Plasma When Dosed alone, Prodrug formula 4-A IV infusion 1.0 mg/kg alone, 0.250 hrs, individual animals): 2.27 ng/mL | concentration at 0.083 h ([2]; male, Sprague-Dawley, rat, in vivo, Prodrug formula 4A Concentrations in Rat Plasma When Dosed with Lenacapavir, Prodrug formula 4-A IV infusion 1.0 mg/kg with Lenacapavir, 0.0830 hrs, Mean): 2.73 ng/mL | concentration at 0.25 h ([2]; male, Sprague-Dawley, rat, in vivo, Prodrug formula 4A Concentrations in Rat Plasma When Dosed with Lenacapavir, Prodrug formula 4-A IV infusion 1.0 mg/kg with Lenacapavir, 0.250 hrs, Mean): 1.76 ng/mL | Prodrug detected in the systemic circulation ([2]; rats, in the absence and presences of lenacapavir): minimal prodrug detected in the systemic circulation
